# Counter-ions that a name gives are not always drawn.
# Tests used:
# [1] = target: T1, PIM1 serine/threonine kinase (Homo sapiens, UniProt P11309); test: PIM1 serine/threonine kinase inhibitory effect; type: biochemical; conditions: PIM1 serine/threonine kinase activity; ATP 40 μM; 30° C., 30 minutes
# T1 construct: purchased Carna Bioscience, Inc
# How it was run: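 Compounds were tested in duplicate from 0.01 to 10000 nM final against PIM1 kinase (0.15 μg/ml). The reaction ran for 30 minutes at 30° C with 40 μM ATP and 0.5 μM biotin-tagged substrate at pH 7.0. Phosphorylation was read by time-resolved FRET (OD665/OD620) after 1 h; IC50 by non-linear fit.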
# [2] = target: PIM1 transgenic cells (Ba/F3) (Homo sapiens, UniProt P11309); test: Proliferation inhibitory effect on PIM1 transgenic cells; type: cell-based, mouse; conditions: proliferation inhibition, 72 hours, Cell Counting Kit-8, read-out: PIM1 IC50
# How it was run: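 Mouse Ba/F3 pro-B cells were retrovirally transduced with human PIM1 so that their proliferation depends on PIM1. Cells were treated with compound at 1–10000 nM final for 72 h, then read by CCK-8 (OD450−OD650). Inhibition was set against DMSO (0%) and no-cell blank (100%), and IC50 was obtained by two-parameter logistic regression.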
# [3] = test system: graft-versus-host disease model CB6F1 mice; test: Lymphocyte proliferation inhibitory effect using graft-versus-host disease model animals (splenomegaly formation); type: in vivo; conditions: Mus musculus, 240 h, oral, twice a day for 10 days, GVHD model CB6F1 mice, read-out: Inhibition rate (%) (splenomegaly formation); for inhibition in vivo at 10 mg/kg: single dose 10 mg/kg; for inhibition in vivo at 20 mg/kg: single dose 20 mg/kg; for inhibition in vivo at 30 mg/kg: single dose 30 mg/kg; for inhibition in vivo at 6 mg/kg: single dose 6 mg/kg
# Procedure: BALB/c mice (8-week-aged female) were euthanized, and then the spleen was removed from each mouse. Then, hemolysis treatment was performed to isolate spleen cells. The obtained spleen cells were intravenously transplanted into CB6F1 mice (8-week-aged female), which are C57BL/6 and BALB/c F1 mice, to prepare a model, and splenomegaly was induced. For transplantation, spleen cells for 1.2 BALB/c mouse were used for one CB6F1 mouse.
# Each test substance shown in Table 64 was weighed and dissolved in a 0.5% methyl cellulose solution, thereby preparing test substance solutions of 0.3 to 10 mg/mL.
# A vehicle (0.5% methyl cellulose solution) or test substance was orally administered to each CB6F1 mouse after transplantation at a dose of 3 to 50 mg/kg in terms of body weight twice a day for 10 days from the day after transplantation. The mouse was euthanized on the 11th day from the start of administration, then the spleen was removed therefrom, and the wet weight of the spleen was measured. For each of CB6F1 mice that had not undergone transplantation as a control group, the wet weight of the spleen was also measured.
# The splenomegaly formation inhibition rate when the spleen weights of the mice to which the vehicle was administered after transplantation and the mice on which transplantation had not been performed were 0% and 100%, respectively, was calculated.
# T1 sequence (P11309 whole entry): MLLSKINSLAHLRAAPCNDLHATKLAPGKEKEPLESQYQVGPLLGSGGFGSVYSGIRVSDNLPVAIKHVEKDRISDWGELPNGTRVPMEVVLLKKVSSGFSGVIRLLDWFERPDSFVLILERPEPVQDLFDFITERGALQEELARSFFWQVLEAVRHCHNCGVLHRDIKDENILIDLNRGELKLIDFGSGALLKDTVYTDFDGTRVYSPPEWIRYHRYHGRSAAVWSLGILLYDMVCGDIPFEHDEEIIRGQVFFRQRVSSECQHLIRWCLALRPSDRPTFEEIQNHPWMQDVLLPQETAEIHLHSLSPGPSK
# Sequence of PIM1 transgenic cells (Ba/F3) (P11309 whole entry, stated change not applied): as the sequence (P11309 whole entry) above
SMILES,IC50 [1] [nM],GI50 [2] [nM],inhibition in vivo at 10 mg/kg [3] [%],inhibition in vivo at 20 mg/kg [3] [%],inhibition in vivo at 30 mg/kg [3] [%],inhibition in vivo at 6 mg/kg [3] [%],inhibition in vivo at 50 mg/kg ([3]; single dose 50 mg/kg) [%]
"C[C@H](Nc1cc(-c2n[nH]c(=O)o2)ccc1C(F)(F)F)C1(F)CCNCC1 [Example 125, 5-[3-{[(1S)-1-(4-fluoropiperidin-4-yl)ethyl]amino}-4-(trifluoromethyl)phenyl]-1,3,4-oxadiazol-2(3H)-one hydrochloride]",2.9,40,,,45.1,,
"C[C@@H]1CNCC[C@@H]1[C@H](C)Nc1cc(-c2n[nH]c(=O)o2)ccc1C(F)(F)F [Example 217, 5-[3-({(1S)-1-[(3S,4S)-3-methylpiperidin-4-yl]ethyl}amino)-4-(trifluoromethyl)phenyl]-1,3,4-oxadiazol-2(3H)-one]",2.8,26,36.3,41.7,,,
"C[C@@H]1CNCC[C@@H]1[C@H](C)Nc1cc(-c2n[nH]c(=O)o2)cc(F)c1OC(F)F [Example 214, 5-[4-(difluoromethoxy)-3-fluoro-5-({(1S)-1-[(3S,4S)-3-methylpiperidin-4-yl]ethyl}amino)phenyl]-1,3,4-oxadiazol-2(3H)-one]",1.8,34,23.3,25.3,,,
"CC[C@@H]1CNCC[C@@H]1[C@H](C)Nc1cc(-c2n[nH]c(=O)o2)cc(F)c1C [Example 229, 5-[3-({(1S)-1-[(3S,4S)-3-ethylpiperidin-4-yl]ethyl}amino)-5-fluoro-4-methylphenyl]-1,3,4-oxadiazol-2(3H)-one]",5.1,19,,35.1,,14.4,
"Cc1c(F)cc(-c2n[nH]c(=O)o2)cc1N[C@@H](C)[C@H]1CCNC[C@H]1F [Example 227, 5-[3-fluoro-5-({(1S)-1-[(3S,4R)-3-fluoropiperidin-4-yl]ethyl}amino)-4-methylphenyl]-1,3,4-oxadiazol-2(3H)-one]",7.7,24,,32.7,,16.7,
"C[C@H](Nc1cc(-c2n[nH]c(=O)o2)c(F)cc1Cl)C1CCNCC1 [Example 95, 5-(4-chloro-2-fluoro-5-{[(1S)-1-(piperidin-4-yl)ethyl]amino}phenyl)-1,3,4-oxadiazol-2(3H)-one hydrochloride]",11,590,,,,,
"C[C@@H]1CN([C@@H](C)[C@H]2CC[C@H](N)CC2)c2cc(-c3n[nH]c(=O)o3)cc(F)c2O1 [Example 253, 5-[(2R)-4-{(1S)-1-[(1r,4S)-4-aminocyclohexyl]ethyl}-8-fluoro-2-methyl-3,4-dihydro-2H-1,4-benzoxazin-6-yl]-1,3,4-oxadiazol-2(3H)-one hydrochloride]",3,81,,,,,
"NCCC1CCN(c2cc(-c3n[nH]c(=O)o3)cc3[nH]ncc23)CC1 [Example 12, 5-{4-[4-(2-aminoethyl)piperidin-1-yl]-1H-indazol-6-yl}-1,3,4-oxadiazol-2(3H)-one dihydrochloride]",13,5100,,,,,
"NCCC1CCN(c2cc(-c3n[nH]c(=O)o3)ccc2C(F)(F)F)CC1 [Example 10, 5-{3-[4-(2-aminoethyl)piperidin-1-yl]-4-(trifluoromethyl)phenyl}-1,3,4-oxadiazol-2(3H)-one hydrochloride]",6.6,630,,,,,
"CC[C@H]1CNCC[C@H]1[C@H](C)Nc1cc(-c2n[nH]c(=O)o2)cc(F)c1C(F)(F)F [Example 226, 5-[3-({(1S)-1-[(3R,4R)-3-ethylpiperidin-4-yl]ethyl}amino)-5-fluoro-4-(trifluoromethyl)phenyl]-1,3,4-oxadiazol-2(3H)-one]",5.4,83,,,,,
"O=c1[nH]nc(-c2ccc(C(F)(F)F)c(NC[C@H]3CCNC[C@H]3F)c2)o1 [Example 126, 5-[3-({[(3S,4R)-3-fluoropiperidin-4-yl]methyl}amino)-4-(trifluoromethyl)phenyl]-1,3,4-oxadiazol-2(3H)-one hydrochloride]",11,600,,,,,

# Further compounds by falling IC50 [1], results first:
IC50 [1] [nM],GI50 [2] [nM],SMILES,inhibition in vivo at 10 mg/kg [3] [%],inhibition in vivo at 20 mg/kg [3] [%],inhibition in vivo at 30 mg/kg [3] [%],inhibition in vivo at 6 mg/kg [3] [%],inhibition in vivo at 50 mg/kg ([3]; single dose 50 mg/kg) [%]
15,1600,"O=c1[nH]nc(-c2ccc(C(F)(F)F)c(NC[C@H]3CCCNC3)c2)o1 [Example 53, 5-[3-({[(3S)-piperidin-3-yl]methyl}amino)-4-(trifluoromethyl)phenyl]-1,3,4-oxadiazol-2(3H)-one hydrochloride]",,,,,
11,2300,"C[C@H](Nc1cc(-c2n[nH]c(=O)o2)ccc1C(F)(F)F)C12C3C4C1C1C2C3C41N (stereo partly drawn) [Example 186, 5-[3-({(1S)-1-[(2S,3R)-4-aminocuban-1-yl]ethyl}amino)-4-(trifluoromethyl)phenyl]-1,3,4-oxadiazol-2(3H)-one hydrochloride]",,,,,
6.2,380,"C[C@H](Nc1cc(-c2n[nH]c(=O)o2)c(Cl)cc1Cl)C1CCNCC1 [Example 96, 5-(2,4-dichloro-5-{[(1S)-1-(piperidin-4-yl)ethyl]amino}phenyl)-1,3,4-oxadiazol-2(3H)-one hydrochloride]",,,,,
4.7,15,Cc1c(F)cc(-c2n[nH]c(=O)o2)cc1N[C@@H](C)[C@H]1CCNC[C@H]1C [Example 228],,33.3,,36.7,
4,61,"C[C@H](Nc1cc(-c2n[nH]c(=O)o2)ccc1C(F)(F)F)[C@H]1C[C@@H](N)C1 [Example 145, 5-[3-({(1S)-1-[(1s,3R)-3-aminocyclobutyl]ethyl}amino)-4-(trifluoromethyl)phenyl]-1,3,4-oxadiazol-2(3H)-one hydrochloride]",27.3,35.6,,,
2.5,49,"Cc1c(F)cc(-c2n[nH]c(=O)o2)cc1N[C@@H](C)[C@H]1CC[C@H](N)CC1 [Example 172, 5-[3-({(1S)-1-[(1r,4S)-4-aminocyclohexyl]ethyl}amino)-5-fluoro-4-methylphenyl]-1,3,4-oxadiazol-2(3H)-one dihydrochloride]",,19.3,,,
2.5,87,"N[C@H]1CC[C@H](COc2cc(-c3n[nH]c(=O)o3)ccc2Br)CC1 [Example 238, 5-(3-{[(1r,4r)-4-aminocyclohexyl]methoxy}-4-bromophenyl)-1,3,4-oxadiazol-2(3H)-one]",,,,,
2.2,27,"C[C@H](Nc1cc(-c2n[nH]c(=O)o2)ccc1C(F)(F)F)[C@@H]1C[C@H](N)C1(C)C [Example 137, 5-[3-({(1S)-1-[(1R,3S)-3-amino-2,2-dimethylcyclobutyl]ethyl}amino)-4-(trifluoromethyl)phenyl]-1,3,4-oxadiazol-2(3H)-one hydrochloride]",,,47.5,,
1.5,19,"C[C@H](Nc1cc(-c2n[nH]c(=O)o2)ccc1C(F)(F)F)[C@H]1CC[C@H](N)CC1 [Example 106, 5-[3-({(1S)-1-[(1r,4S)-4-aminocyclohexyl]ethyl}amino)-4-(trifluoromethyl)phenyl]-1,3,4-oxadiazol-2(3H)-one hydrochloride]",,,39.8,,
1.2,55,"C[C@H](Nc1cc(-c2n[nH]c(=O)o2)cc(Br)c1Cl)C1CCNCC1 [Example 97, 5-(3-bromo-4-chloro-5-{[(1S)-1-(piperidin-4-yl)ethyl]amino}phenyl)-1,3,4-oxadiazol-2(3H)-one dihydrochloride]",,,,,33
0.8,26,"C[C@H](Nc1cc(-c2n[nH]c(=O)o2)cc(F)c1Cl)[C@H]1CC[C@H](N)CC1 [Example 177, 5-[3-({(1S)-1-[(1r,4S)-4-aminocyclohexyl]ethyl}amino)-4-chloro-5-fluorophenyl]-1,3,4-oxadiazol-2(3H)-one hydrochloride]",23.7,39.2,,,

# Reference: patent publication US20220024921A1, “1,3,4-OXADIAZOLONE COMPOUND AND PHARMACEUTICAL” (NIPPON SHINYAKU CO., LTD., priority 2018, published 2022)
